Source: patent US11254705B2, “Cyclic peptide analogs and conjugates thereof” (Sirenas LLC, priority 2016, dated 2022)

What was measured:
HCC1954 cells = assay: Inhibition of HCC1954 cell growth (method analogous to BT-474); format: cell-based; details: Homo sapiens
Experimental: (§1) BT-474 human mammary gland ductal carcinoma cells were seeded in a clear polystyrene 96-well microculture plate (Corning® Costar® 96-well flat bottom plate, Cat. #3997) in a total volume of 90 μL/well. After 24 hours of incubation in a humidified incubator at 37° C. with 5% CO2 and 95% air, 10 μL of 10×, serially diluted test agents in growth medium were added to each well (10 pt dose response curve, highest concentration 10 μM of test agent). After 72 hours of culture in a humidified incubator at 37° C., in an atmosphere of 5% CO2 and 95% air, the plated cells and Cell Titer-Glo® (Protnega G7571) reagents were brought to room temperature to equilibrate for 30 minutes. 100 μL of Cell Titer-Glo® reagent was added to each well. The plate was shaken for two minutes and then left to equilibrate for ten minutes. The media/Cell Titer-Glo® reagent was transferred to a white polystyrene 96-well microculture plate (Corning® Costar® 96-well flat bottom plate, Cat. #3917) before reading luminescence on a Tecan GENios microplate reader.
(§2) Percent inhibition of cell growth was calculated relative to untreated control wells. The IC50 value for the test agents was determined using Prism 6.05 by curve-fitting of the data using the following four parameter-logistic equation:
(§3) [formula] where Top is the maximal % of control absorbance, Bottom is the minimal % of control absorbance at the highest agent concentration, Y is the % of control absorbance, X is the agent concentration, IC50 is the concentration of agent that inhibits cell growth by 50% compared to the control cells, and n is the slope of the curve.
Inhibitory response of test compounds against HCC1954 cells was determined using a method analogous to that used for BT-474 cells.

[1] = system: BT-474 human mammary gland ductal carcinoma cells; assay: Inhibition of BT-474 cell growth (Cell Titer-Glo, 72 h); format: cell-based; details: BT-474 cells, 72 hours of culture, Cell Titer-Glo luminescence
Experimental: as §1, §2
as §3, with “curve. […]” for “curve.”

Row | SMILES | IC50 (HCC1954 cells) | IC50 [1]
1 | C/C=C(\C)[C@H]1OC(=O)[C@@H](C)NC(=O)[C@H](C(C)CC)NC(=O)CN(C)C(=O)[C@@H](Cc2ccccc2)N(C)C(=O)[C@H](C)NC(=O)[C@@H](CC(C)C)OC(=O)/C(C)=C/C[C@H](OC(=O)NCCCCCCO)[C@@H]1C (stereo partly drawn) [Compound 4, (2R,5S,8R,14S,17R,20S,21S,22S,E)-8-benzyl-20-((E)-but-2-en-2-yl)-14-((R)-sec-butyl)-2-isobutyl-5,7,10,17,21,25-hexamethyl-3,6,9,12,15,18,26-heptaoxo-1,19-dioxa-4,7,10,13,16-pentaazacyclohexacos-24-en-22-yl(6-hydroxyhexyl)carbamate] | 3.21 nM | 0.523 nM
2 | C/C=C(\C)[C@H]1OC(=O)[C@@H](C)NC(=O)[C@H]([C@H](C)CC)NC(=O)CN(C)C(=O)[C@@H](Cc2ccccc2)N(C)C(=O)[C@H](C)NC(=O)[C@@H](CC(C)C)OC(=O)/C(C)=C/C[C@H](OC(=O)N(C)CCCCCCNC)[C@@H]1C [Compound 8, (2R,5S,8R,14S,17R,20S,21S,22S,E)-8-benzyl-20-((E)-but-2-en-2-yl)-14-((R)-sec-butyl)-2-isobutyl-5,7,10,17,21,25-hexamethyl-3,6,9,12,15,18,26-heptaoxo-1,19-dioxa-4,7,10,13,16-pentaazacyclohexacos-24-en-22-yl methyl(6-(methylamino)hexyl)carbamate] | 31.9 nM | 8.66 nM
3 | C/C=C(\C)[C@H]1OC(=O)[C@@H](C)NC(=O)[C@H]([C@H](C)CC)NC(=O)CN(C)C(=O)[C@@H](Cc2ccccc2)N(C)C(=O)[C@H](C)NC(=O)[C@@H](CC(C)C)OC(=O)/C(C)=C/C[C@H](OC(=O)NCCCCO)[C@@H]1C [Compound 2, (2R,5S,8R,14S,17R,20S,21S,22S,E)-8-benzyl-20-((E)-but-2-en-2-yl)-14-((R)-sec-butyl)-2-isobutyl-5,7,10,17,21,25-hexamethyl-3,6,9,12,15,18,26-heptaoxo-1,19-dioxa-4,7,10,13,16-pentaazacyclohexacos-24-en-22-yl (4-hydroxybutyl)carbamate] | 4.95 nM | 3.75 nM
4 | C/C=C(\C)[C@H]1OC(=O)[C@@H](C)NC(=O)[C@H]([C@H](C)CC)NC(=O)CN(C)C(=O)[C@@H](Cc2ccccc2)N(C)C(=O)[C@H](C)NC(=O)[C@@H](CC(C)C)OC(=O)/C(C)=C/C[C@H](OC(=O)N2CCN(CCO)CC2)[C@@H]1C [Compound 9, (2R,5S,8R,14S,17R,20S,21S,22S,E)-8-benzyl-20-((E)-but-2-en-2-yl)-14-((R)-sec-butyl)-2-isobutyl-5,7,10,17,21,25-hexamethyl-3,6,9,12,15,18,26-heptaoxo-1,19-dioxa-4,7,10,13,16-pentaazacyclohexacos-24-en-22-yl-4-(2-hydroxyethyl)piperazine-1-carboxylate] | 0.25 nM | 0.15 nM
5 | C/C=C(\C)[C@H]1OC(=O)[C@@H](C)NC(=O)[C@H]([C@H](C)CC)NC(=O)CN(C)C(=O)[C@@H](Cc2ccc(Cl)cc2)N(C)C(=O)[C@H](C)NC(=O)[C@@H](CC(C)C)OC(=O)/C(C)=C/C[C@H](O)[C@@H]1C [Compound 15, (3R,6S,12R,15S,18R,24S,25S,26S,E)-26-((E)-but-2-en-2-yl)-6-((R)-sec-butyl)-12-(4-chlorobenzyl)-24-hydroxy-18-isobutyl-3,10,13,15,21,25-hexamethyl-1,19-dioxa-4,7,10,13,16-pentaazacyclohexacos-21-ene-2,5,8,11,14,17,20-heptaone] | 4.37 nM | 2.62 nM
6 | C/C=C(\C)[C@H]1OC(=O)[C@@H](C)NC(=O)[C@H]([C@H](C)CC)NC(=O)CN(C)C(=O)[C@@H](Cc2ccccc2)N(C)C(=O)[C@H](C)NC(=O)[C@@H](CC(C)C)OC(=O)/C(C)=C/C[C@H](OC(=O)NCCCO)[C@@H]1C [Compound 1, (2R,5S,8R,14S,17R,20S,21S,22S,E)-8-benzyl-20-((E)-but-2-en-2-yl)-14-((R)-sec-butyl)-2-isobutyl-5,7,10,17,21,25-hexamethyl-3,6,9,12,15,18,26-heptaoxo-1,19-dioxa-4,7,10,13,16-pentaazacyclohexacos-24-en-22-yl (3-hydroxypropyl)carbamate] | 0.457 nM | 0.0811 nM
7 | C/C=C(\C)[C@H]1OC(=O)[C@@H](C)NC(=O)[C@H](C(C)CC)NC(=O)CN(C)C(=O)[C@@H](Cc2ccccc2)N(C)C(=O)[C@H](C)NC(=O)[C@@H](CC(C)C)OC(=O)/C(C)=C/C[C@H](OC(=O)NCCCCCCCO)[C@@H]1C (stereo partly drawn) [Compound 5, (2R,5S,8R,14S,17R,20S,21S,22S,E)-8-benzyl-20-((E)-but-2-en-2-yl)-14-((R)-sec-butyl)-2-isobutyl-5,7,10,17,21,25-hexamethyl-3,6,9,12,15,18,26-heptaoxo-1,19-dioxa-4,7,10,13,16-pentaazacyclohexacos-24-en-22-yl(7-hydroxyheptyl)carbamate] | 1.11 nM | 0.329 nM
8 | C/C=C(\C)[C@H]1OC(=O)[C@@H](C)NC(=O)[C@H](C(C)CC)NC(=O)CN(C)C(=O)[C@@H](Cc2ccccc2)N(C)C(=O)[C@H](C)NC(=O)[C@@H](CC(C)C)OC(=O)/C(C)=C/C[C@H](OC(=O)NCCOCCO)[C@@H]1C (stereo partly drawn) [Compound 11, (2R,5S,8R,14S,17R,20S,21S,22S,E)-8-benzyl-20-((E)-but-2-en-2-yl)-14-((R)-see-butyl)-2-isobutyl-5,7,10,17,21,25-hexamethyl-3,6,9,12,15,18,26-heptaoxo-1,19-dioxa-4,7,10,13,16-pentaazacyclohexacos-24-en-22-yl (2-(2-hydroxyethoxy)ethyl)carbamate] | 1.64 nM | 1 nM
9 | C/C=C(\C)[C@H]1OC(=O)[C@@H](C)NC(=O)[C@H]([C@H](C)CC)NC(=O)CN(C)C(=O)[C@@H](Cc2ccc(Cl)cc2)N(C)C(=O)[C@H](C)NC(=O)[C@@H](CC(C)C)OC(=O)/C(C)=C/C[C@H](OC(=O)N(C)CCCCCCCCCCCCNC)[C@@H]1C [Compound 20, (2R,5S,8R,14S,17R,20S,21S,22S,E)-20-((E)-but-2-en-2-yl)-14-((R)-sec-butyl)-8-(4-chlorobenzyl)-2-isobutyl-5,7,10,17,21,25-hexamethyl-3,6,9,12,15,18,26-heptaoxo-1,19-dioxa-4,7,10,13,16-pentaazacyclohexacos-24-en-22-yl methyl(12-(methylamino)dodecyl)carbamate] | 15.4 nM | –
10 | C/C=C(\C)[C@H]1OC(=O)[C@@H](C)NC(=O)[C@H]([C@H](C)CC)NC(=O)CN(C)C(=O)[C@@H](Cc2ccccc2)N(C)C(=O)[C@H](C)NC(=O)[C@@H](CC(C)C)OC(=O)/C(C)=C/C[C@H](OC(=O)NCCCCCO)[C@@H]1C [Compound 3, (2R,5S,8R,14S,17R,20S,21S,22S,E)-8-benzyl-20-((E)-but-2-en-2-yl)-14-((R)-sec-butyl)-2-isobutyl-5,7,10,17,21,25-hexamethyl-3,6,9,12,15,18,26-heptaoxo-1,19-dioxa-4,7,10,13,16-pentaazacyclohexacos-24-en-22-yl (5-hydroxypentyl)carbamate] | 1.41 nM | 0.0843 nM
11 | C/C=C(\C)[C@H]1OC(=O)[C@@H](C)NC(=O)[C@H]([C@H](C)CC)NC(=O)CN(C)C(=O)[C@@H](Cc2ccccc2)N(C)C(=O)[C@H](C)NC(=O)[C@@H](CC(C)C)OC(=O)/C(C)=C/C[C@H](OC(=O)NCCCCCCCCO)[C@@H]1C [Compound 6, (2R,5S,8R,14S,17R,20S,21S,22S,E)-8-benzyl-20-((E)-but-2-en-2-yl)-14-((R)-sec-butyl)-2-isobutyl-5,7,10,17,21,25-hexamethyl-3,6,9,12,15,18,26-heptaoxo-1,19-dioxa-4,7,10,13,16-pentaazacyclohexacos-24-en-22-yl (8-hydroxyoctyl)carbamate] | 1.66 nM | 0.93 nM
